One may read the IC50 as the concentration that inhibits the measured activity by half.

Results on seven compounds are retold here after ChEMBL document CHEMBL4043256, “Discovery of N-substituted 7-azaindoles as PIM1 kinase inhibitors - Part I” (Bioorg Med Chem Lett, 2017).

For assay [1], the target named is Serine/threonine-protein kinase pim-3 (Homo sapiens, UniProt Q86V86). In words: Inhibition of PIM3 (unknown origin) assessed as reduction in full length human BAD phosphorylation at Ser112 residues by TR-FRET assay. In general terms: TR-FRET usually uses a lanthanide donor and a delayed reading to cut background.
For assay [2], the target named is Serine/threonine-protein kinase pim-2 (Homo sapiens, UniProt Q9P1W9). The assay can be described thus: Inhibition of PIM2 (unknown origin) assessed as reduction in full length human BAD phosphorylation at Ser112 residues by TR-FRET assay.
Sequence of Serine/threonine-protein kinase pim-2 (Q9P1W9 whole entry): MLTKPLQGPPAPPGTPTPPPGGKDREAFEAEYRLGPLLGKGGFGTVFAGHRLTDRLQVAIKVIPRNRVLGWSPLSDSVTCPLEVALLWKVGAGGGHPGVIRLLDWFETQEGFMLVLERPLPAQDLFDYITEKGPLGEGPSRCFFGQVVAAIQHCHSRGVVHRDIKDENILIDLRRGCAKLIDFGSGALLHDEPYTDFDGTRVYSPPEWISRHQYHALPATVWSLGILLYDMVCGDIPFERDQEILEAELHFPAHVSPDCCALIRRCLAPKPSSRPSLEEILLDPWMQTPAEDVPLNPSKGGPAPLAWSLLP
Assay [3] concerns the target Cyclin-dependent kinase 9 (Homo sapiens, UniProt P50750).
Assay [4] has as its target Cell division cycle 7-related protein kinase (Homo sapiens, UniProt O00311). The assay can be described thus: Inhibition of CDC7 (unknown origin).

Where only a bound is given, the exact number is not on record here.

Sequence of Cell division cycle 7-related protein kinase (O00311 whole entry): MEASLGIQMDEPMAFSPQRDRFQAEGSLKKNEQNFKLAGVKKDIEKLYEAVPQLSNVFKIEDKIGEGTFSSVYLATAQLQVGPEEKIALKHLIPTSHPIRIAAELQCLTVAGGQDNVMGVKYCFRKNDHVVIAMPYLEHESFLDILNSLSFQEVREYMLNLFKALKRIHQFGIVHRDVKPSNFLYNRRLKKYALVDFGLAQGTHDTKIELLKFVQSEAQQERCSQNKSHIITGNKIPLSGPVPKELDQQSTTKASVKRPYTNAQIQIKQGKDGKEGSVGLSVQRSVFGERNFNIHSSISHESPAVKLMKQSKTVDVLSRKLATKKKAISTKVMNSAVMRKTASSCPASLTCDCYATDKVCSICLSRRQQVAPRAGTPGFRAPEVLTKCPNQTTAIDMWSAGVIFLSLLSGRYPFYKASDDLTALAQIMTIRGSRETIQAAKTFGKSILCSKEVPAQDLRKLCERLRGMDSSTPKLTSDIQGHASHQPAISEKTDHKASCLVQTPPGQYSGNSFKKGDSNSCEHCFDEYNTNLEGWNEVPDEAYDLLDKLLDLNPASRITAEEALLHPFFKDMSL
Sequence of Cyclin-dependent kinase 9 (P50750 whole entry): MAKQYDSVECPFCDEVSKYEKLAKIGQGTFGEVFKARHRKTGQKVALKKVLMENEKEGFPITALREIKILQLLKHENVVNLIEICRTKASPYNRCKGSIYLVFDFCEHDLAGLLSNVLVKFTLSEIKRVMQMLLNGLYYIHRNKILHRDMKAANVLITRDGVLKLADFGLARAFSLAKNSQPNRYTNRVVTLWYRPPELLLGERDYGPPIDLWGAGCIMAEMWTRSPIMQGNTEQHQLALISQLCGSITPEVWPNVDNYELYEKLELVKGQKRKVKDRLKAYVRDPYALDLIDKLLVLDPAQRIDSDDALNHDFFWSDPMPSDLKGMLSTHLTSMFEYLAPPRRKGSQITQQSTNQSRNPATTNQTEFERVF

`Cc1c(-c2ccc(N3CCNCC3)cc2)n(C)c2nc(C(N)=O)cc(Cl)c12`: the IC50 in assay [1] stood at 290 nM; in assay [2] it was 1270 nM.
On to `CN1CCC(NC(=O)c2ccc(-c3c(-c4ccc(N5CCN(C)CC5)cc4)n(C)c4nccc(Cl)c34)cc2)CC1`, for which the values for the 50% inhibitory concentration (IC50) in assay [1] and in assay [2] were 492 nM and 872 nM, respectively.
As for `Cn1c(-c2ccc(N3CCNCC3)cc2)c(-c2ccc(CO)cc2)c2c(Cl)ccnc21`, the IC50 in assay [1] worked out at 10600 nM; in assay [2] it was 13800 nM.
In the case of `Clc1ccnc2[nH]c(-c3ccc(N4CCNCC4)cc3)cc12`, the concentration for half-maximal inhibition (IC50) in assay [3] was determined as 20 nM; in assay [4], 40 nM.
Take `CN(C)Cc1ccc(-c2c(-c3ccc(N4CCN(C)CC4)cc3)n(C)c3nccc(Cl)c23)cc1`: the IC50 in assay [1] is 1400 nM; in assay [2], 3300 nM.
Take `CN(C)Cc1ccc(-c2c(-c3ccc(N4CCNCC4)cc3)n(C)c3nc(C(N)=O)cc(Cl)c23)cc1`: the IC50 in assay [2] was more than 30000 nM.
Consider `CN1CCN(c2ccc(-c3cc4c(Cl)cc(C(N)=O)nc4n3C)cc2)CC1`, for which the IC50 in assay [1] is 400 nM; in assay [2], more than 30000 nM.
